Reference: patent US6579888B2, “Method and kit for treating illnesses” (Opt-e-scrip, Inc., priority 1994, dated 2003)

How the values were obtained:
[1] = system: hypertensive person; assay: Six-week random double-blind trial of sustained release verapamil as therapeutic alternative to sustained release propranolol; type: in vivo, human; details: verapamil SR 240 mg once daily versus propranolol SR 180 mg once daily; end of six-week trial; statistically insignificant
Protocol: In this example, the validity of using a sustained release formulation of verapamil 240 mg once daily as a therapeutic alternative to sustained release propranolol 180 mg once daily in a hypertensive person is shown. The trial during which the two medications are randomly administered in a double-blind manner is six weeks. The questionnaire used is set up in a manner similar to that described in above examples except that the questions elicit information related to the disease of hypertension. Blood pressure is taken daily by the patient and weekly by the physician. Lab values and vision tests are also reported weekly by the physician. […] Both values are statistically insignificant and the therapeutic alternative selection is objectively validated.

[2] = system: hyperactive child (Minimum Brain Dysfunction); assay: SPAS single-patient random double-blind crossover trial of methylphenidate versus placebo
Protocol: In this example, the usefulness of methylphenidate (Ritalin) treatment in a hyperactive child (Minimum Brain Dysfunction) is evaluated.
Technology: Consists of instructions, “calendar” packaging for drug and a substantially identical looking placebo to assure appropriate dosing and monitor compliance, questionnaire assessment forms and instructions. […] Results are mailed to the physician and, in this case, parent for use in evaluating the usefulness of the therapy. The physician and parent are contacted, e.g., every three months to provide data on therapies utilized, and perceived outcome, until the condition resolves.
The questionnaire portion of the kit includes an initial consent form for the parent or guardian to complete. The questionnaire also provides background information on the study and possible side effects associated with the medication. Also included therein is a portion for providing relevant patient and family histories. More importantly, the questionnaire, in this case includes a portion for the weekly input by parents or guardian and school observers of answers to questions relating to the drug evaluation. Typical questionnaire sheet for these portions are shown below as Table 1 and Table 2. Physician questionnaires are similarly arranged.
The trial calls for 40 mg daily given at 10 mg four times daily compared to identical appearing placebo given four times daily.

[3] = system: patients with the same disorder (hyperactive child); assay: Pooled SPAS data and monthly follow-up of patients with the same disorder continued on methylphenidate; type: in vivo, human
Protocol: All results obtained from the data are then compared against the results provided by data amassed from a pool of about 200 patients with the same disorder. Of these 200 patients, 55 experienced encouraging results (as did the current patient) and were continued on 40 mg daily treatment. Of these 55 patients, 5 were lost to follow-up, with 50 remaining for prospective evaluation. Because the physician would now choose to continue the patient on 40 mg methylphenidate daily based solely on the isolated SPAS single patient drug trial results, they now take the opportunity of reviewing the pooled data on the 50 patients. This is done to understand under what circumstances this individual patient would likely continue to show benefit from methylphenidate 40 mg treatment, and what conditions lead to treatment failure.
The pool of 50 patients who continued treatment had the following scores following the original SPAS testing:
All 50 patients were followed up by telephone interview monthly for nine months or more, and outcomes were prospectively documented.

[4] = patients with statistically altered sleep patterns, continued 40 mg daily
[5] = pool of 50 patients, original SPAS testing

Structure (SMILES)	mean diastolic pressure [1]	mean systolic blood pressure increase [1] [%]	patient's attention span ([2]; 40 mg daily (10 mg four times daily), methylphenidate periods versus placebo periods)	teacher comments ([2]; 40 mg daily, methylphenidate dosing periods)	sleep patterns ([2]; 40 mg daily, methylphenidate periods)	outcome on continued treatment, patients with no statistically altered sleep disturbances ([3]; 40 mg daily, monthly follow-up for nine months or more)	outcome on continued treatment, patients with statistically altered sleep patterns ([3]; 40 mg daily, within two months)	discontinuation from treatment ([3]; all patients with a statistically altered sleep disturbance)	patients who experienced encouraging results and were continued on treatment ([3]; of a pool of about 200 patients, 40 mg daily) [patients]	patients who experienced a grand mal seizure [3, 4]	severe episodes of bizarre behaviors / severe adverse event [3, 4] [%]	Attention Span: patients who had substantial improvement ([3]; pool of 50 patients who continued treatment, original SPAS testing) [% had substantial]	Sleep Patterns: patients not statistically altered [3, 5] [% were not statistically]	Sleep Patterns: patients statistically altered [3, 5]	Teacher Comments: corroborate improved attention span [3, 5] [% corroborate improved]	Teacher Comments: did not corroborate improved attention span [3, 5] [% did not corroborate]
COc1ccc(CCN(C)CCCC(C#N)(c2ccc(OC)c(OC)c2)C(C)C)cc1OC (stereo not shown) [verapamil]	essentially stable	3														
COC(=O)C(c1ccccc1)C1CCCCN1 (stereo not shown) [methylphenidate]			improved substantially	corroborate improved attention span	statistically altered	continued to be well maintained on treatment	showed loss of symptom control	had to be discontinued from treatment within two months	55	two	90	100	50	50% were statistically altered	80	20
